Experiments:
[1] = HNO production determined via N2O quantification (GC headspace analysis); format: physicochemical; conditions: PBS, 37° C.
Description: Nitrous oxide (N2O) is produced via the dimerization and dehydration of HNO, and is the most common marker for nitroxyl production (Fukuto et al., Chem. Res. Toxicol. 18:790-801 (2005)). […] Using either nitrous oxide gas or Angeli's salt (AS) as a standard, the relative amounts of N2O released from compounds of the disclosure was examined via gas chromatography (GC) headspace analysis.
A procedure for determining the relative amounts of N2O released from compounds of the disclosure is as follows. GC was performed on an Agilent gas chromatograph equipped with a split injector (10:1 splitting), microelectron capture detector, and a HP-MOLSIV 30 m×0.32 mm×25 μm molecular sieve capillary column. Helium was used as the carrier (4 mL/min) gas and nitrogen was used as the make-up (20 mL/min) gas. The injector oven and the detector oven were kept at 200° C. and 325° C., respectively. All nitrous oxide analyses were performed with the column oven held at a constant temperature of 200° C.
All gas injections were made using an automated headspace analyzer. Vial pressurization was 15 psi. The analyzer's sample oven, sampling valve, and transfer line were kept at 40° C., 45° C., and 50° C., respectively. The oven stabilization, vial pressurization, loop fill, loop equilibration, and sample injection times were 1.00 min., 0.20 min., 0.20 min., 0.05 min., and 1.00 min., respectively.
All determinations used a batch of nominal 20 mL headspace vials with volumes pre-measured for sample uniformity (actual vial volume varied by <2.0% relative standard deviation (n=6)). The average vial volume for the batch was determined from six randomly-selected vials by calculating the weight difference between the capped and sealed empty (i.e., air-filled) vial and the capped and sealed deionized water-filled vial using the known density of deionized water, then averaging. Blanks were prepared by sealing and capping two vials then purging each for 20 seconds with a gentle argon stream. Nitroxyl standards were prepared by sealing and capping four vials then purging each for 1 minute with a gentle stream, from a gas cylinder, of a 3000 ppm […].
CXL-1020 (N-hydroxy-2-methanesulfonylbenzene-1-sulfonamide) “standards” were prepared by, in duplicate, accurately weighing 10±0.5 mg of CXL-1020 and adding it to each 4 mL vial. Using an auto pipette, 1 mL of argon-purged anhydrous DMF (Sigma-Aldrich) was added to each 4 mL vial to form a CXL-1020 stock solution for each sample and the vials were capped and shaken and/or sonicated to insure complete dissolution upon visual observation. Using an auto pipette, 20 mL vials were charged with 5 mL of PBS (purged for at least 30 min. with argon prior to use), purged with argon for at least 20 sec., and sealed with a rubber septum. Using a 50 μL syringe, 50 μL of the CXL-1020 stock solution was injected into each 20 mL vial containing the PBS.
Samples were prepared as follows. In duplicate, 18±1 mg of each sample was accurately weighed into each 4 mL vial. Using an auto pipette, 1 mL of argon-purged anhydrous DMF was added to each 4 mL vial to form a sample stock solution for each sample and the vials were capped and shaken and/or sonicated to insure complete sample dissolution upon visual observation. Using an auto pipette, 20 mL vials were charged with 5 mL of PBS (purged for at least 30 min. with argon prior to use), purged with argon for at least 20 sec., and sealed with a rubber septum. The vials were equilibrated for at least 10 min. at 37° C. in a dry block heater. Thereafter, using a 50 μL syringe, 50 μL of a sample stock solution was injected into each 20 mL vial containing the PBS. The vials were then held at 37° C. in the dry block heater for a time period such that the sum of the time spent in the dry block heater plus the time spent in the automated headspace analyzer oven before sample injection equaled the desired incubation time. […]

[2] = In vitro stability (half-life) in dog plasma; format: in vitro ADME; conditions: male, dog, plasma, pH 7.4, 5 μM, dog plasma pH 7.4 with anticoagulant, 37° C.; read-out: T1/2 (minutes) Dog
Protocol: (§1) Certain compounds from Tables 1 and 2 and CXL-1020 were tested for their stability in phosphate buffered saline (PBS) and plasma. The assay system comprised (i) PBS, or plasma from rat, dog or human (at least 3 donors, male, pooled) at pH 7.4, and (ii) for tests conducted in plasma, an anticoagulant (sodium heparin or sodium citrate). Each test compound (5 μM) was incubated in PBS or plasma at 37° C. on a THERMOMIXER® with shaking. Three samples (n=3) were taken at each of seven sampling time points: 0, 10, 30, 60, 90, 180 and 360 minutes. The samples were immediately combined with 3 volumes (i.e., 3 times the volume of PBS or plasma) of acetonitrile containing 1% formic acid and an internal standard to terminate the reaction. AB SCIEX API 3000 LC-MS/MS analysis of the test compounds was performed without a standard curve. Half-lives (T1/2) of the test compounds were determined from graphs of the percent remaining values using the peak area response ratio. For compounds tested multiple times, the value provided in the Table represents an average of the replicate assays.

[3] = In vitro stability (half-life) in human plasma; format: in vitro ADME; conditions: male, human plasma pH 7.4 with anticoagulant, 37° C., read-out: T1/2 (minutes) Human
Protocol: as §1

[4] = In vitro stability (half-life) in phosphate buffered saline (PBS) pH 7.4; format: physicochemical; conditions: pH 7.4, 5 μM, PBS pH 7.4, 37° C., read-out: T1/2 (minutes) PBS
Protocol: as §1

[5] = In vitro stability (half-life) in rat plasma; format: in vitro ADME; conditions: rat plasma pH 7.4 with anticoagulant, 37° C.; for half-life at 5 μM: male, rat, plasma, pH 7.4, 5 μM, read-out: T1/2 (minutes) Rat; for T1/2 (minutes) Rat: 5 μM
Protocol: as §1

SMILES | half-life at 5 μM [2] [min] | half-life at 5 μM [3] [min] | half-life at 5 μM [4] [min] | half-life at 5 μM [5] [min] | T1/2 (minutes) Rat [5] [min] | Relative N2O Yield (90 minutes incubation) [1] [%] | Relative N2O Yield (360 minutes incubation) [1] [%]
Cc1oncc1S(=O)(=O)NO [Compound 3, N-Hydroxy-5-methyl-1,2-oxazole-4-sulfonamide] | 38 | 71 | 98 | 37 | – | 45 | 56
CC(C)NC(=O)c1cc(S(=O)(=O)NO)cs1 [Compound 5, 4-(Hydroxysulfamoyl)-N-(propan-2-yl)thiophene-2-carboxamide] | 28 | 24 | 136 | 104 | – | 48 | 72
Cc1cc(S(=O)(=O)NO)c(C(F)(F)F)o1 [Compound 7, N-Hydroxy-5-methyl-2-(trifluoromethyl)furan-3-sulfonamide] | 56 | – | 224 | – | – | 51 | –
CS(=O)(=O)c1cc(S(=O)(=O)NO)cs1 [Compound 8, N-Hydroxy-5-methanesulfonylthiophene-3-sulfonamide] | 27 | – | 42 | – | – | 77 | –
Cc1cc(S(=O)(=O)NO)c(C)cc1Cl [Compound 18, 4-Chloro-N-hydroxy-2,5-dimethylbenzene-1-sulfonamide] | – | – | 56 | > 360 | – | 56 | 73
O=C(c1ccc(S(=O)(=O)NO)s1)N1CCOCC1 [Compound 21, N-Hydroxy-5-(morpholine-4-carbonyl)thiophene-2-sulfonamide] | – | – | 39 | 36 | – | 73.5 | –
CC(C)NC(=O)c1ccc(S(=O)(=O)NO)s1 [Compound 22, 5-(Hydroxysulfamoyl)-N-(propan-2-yl)thiophene-2-carboxamide] | – | – | 33 | 23 | – | 85 | –
O=S(=O)(NO)c1cccc2nsnc12 [Compound 24, N-Hydroxy-2,1,3-benzothiadiazole-4-sulfonamide] | – | – | 37 | 14 | – | 60 | 69
O=S(=O)(NO)c1cccnc1 [Compound 26, N-Hydroxypyridine-3-sulfonamide] | – | 45 | 53 | 29 | – | 73.5 | –
Cc1noc(C)c1S(=O)(=O)NO [Compound 27, N-Hydroxy-3,5-dimethyl-1,2-oxazole-4-sulfonamide] | – | 99 | – | – | 75 | 35.5 | 66
O=S(=O)(NO)c1ccccn1 [Compound 32, N-Hydroxypyridine-2-sulfonamide] | – | – | 61 | 32 | – | 71 | –
O=C(c1csc(S(=O)(=O)NO)c1)N1CCOCC1 [Compound 35, N-Hydroxy-4-(morpholine-4-carbonyl)thiophene-2-sulfonamide] | – | – | 58 | 19 | – | 100 | –
Cc1cc(F)ccc1S(=O)(=O)NO [Compound 39, 4-Fluoro-N-hydroxy-2-methylbenzene-1-sulfonamide] | – | – | 30 | 29 | – | 60 | 75
O=[N+]([O-])c1cc(S(=O)(=O)NO)sc1Cl [Compound 47, 5-Chloro-N-hydroxy-4-nitrothiophene-2-sulfonamide] | – | – | 11 | < 5 | – | 58 | 70

Now from value to molecule, other results behind:

half-life at 5 μM [2] [min] | half-life at 5 μM [3] [min] | half-life at 5 μM [4] [min] | half-life at 5 μM [5] [min] | T1/2 (minutes) Rat [5] [min] | SMILES | Relative N2O Yield (90 minutes incubation) [1] [%] | Relative N2O Yield (360 minutes incubation) [1] [%]
– | – | 87 | 13 | – | Cc1ccc(C)c(S(=O)(=O)NO)c1 [Compound 49, N-Hydroxy-2,5-dimethylbenzene-1-sulfonamide] | 42 | 68
– | – | 15 | 7 | – | O=S(=O)(NO)c1cc(S(=O)(=O)c2ccccc2)cs1 [Compound 51, 4-(Benzenesulfonyl)-N-hydroxythiophene-2-sulfonamide] | 96 | –
– | – | 34 | 8 | – | Cc1ccc(F)c(S(=O)(=O)NO)c1 [Compound 56, 2-Fluoro-N-hydroxy-5-methylbenzene-1-sulfonamide] | 72 | 78
24 | – | 101 | 49 | – | O=S(=O)(NO)c1ccc(F)c(Cl)c1 [Compound 87, 3-Chloro-4-fluoro-N-hydroxybenzene-1-sulfonamide] | 53 | 79
16 | – | 38 | – | – | O=S(=O)(NO)c1cccc(S(=O)(=O)NO)c1 [Compound 88, 1-N,3-N-Dihydroxybenzene-1,3-disulfonamide] | 53 | 100
34 | – | 76 | 38.4 | – | O=S(=O)(NO)c1cccc(Br)c1 [Compound 89, 3-Bromo-N-hydroxybenzene-1-sulfonamide] | – | –
21 | – | 25.1 | 6.8 | – | Cc1ccc(F)cc1S(=O)(=O)NO [Compound 90, 5-Fluoro-N-hydroxy-2-methylbenzene-1-sulfonamide] | 90 | –
54.4 | – | 211 | – | 176 | Cc1noc(C)c1S(=O)(=O)NO [Compound 91, N-Hydroxy-3,5-dimethyl-1,2-oxazole-4-sulfonamide] | – | –
– | 35 | 68 | 38 | – | CS(=O)(=O)c1ccc(S(=O)(=O)NO)cc1 [Compound 93, N-Hydroxy-4-methanesulfonylbenzene-1-sulfonamide] | 86 | –

Reference: patent publication US10245249B2, “Pharmaceutical compositions comprising nitroxyl donors” (Cardioxyl Pharmaceuticals, Inc., priority 2013, dated 2019)
